Source: ChEMBL document CHEMBL5344403, “Discovery and evaluation of phenacrylanilide derivatives as novel potential anti-liver fibrosis agents” (Eur J Med Chem, 2022)
Active and inactive are the calls of the source. The calls are words filed in the database; no cut-off is given here.

Columns and labels:
[1] = Antiproliferative activity against human LX2 cells assessed as cell survival rate at 20 uM incubated for 72 hrs by CCK-8 assay; assay type: toxicity, cell-based; settings: LX-2 cells, read-out: Activity
[2] = tested on: LX-2; experiment: Inhibition of TGF-beta1-induced human LX2 activation at 20 uM pretreated with TGF-beta1 for 1 hr followed by compound addition and measured after 72 hrs by CCK-8 assay relative to control; assay type: functional
[3] = Antiproliferative activity against human LO2 cells assessed as inhibition of cell growth incubated for 72 hrs by CCK-8 assay; assay type: toxicity, cell-based; settings: LO2 (L02) cells
[4] = tested on: LX-2; experiment: Antifibrotic activity against TGF-beta1 induced human LX2 cells assessed as reduction of alpha-SMA expression at 20 uM pretreated with TGF-beta1 for 1 hr followed by compound addition and measured after 24 hrs by Western blot analysis; assay type: functional, cell-based
[5] = tested on: LX-2; experiment: Antifibrotic activity against TGF-beta1 induced human LX2 cells assessed as reduction of fibronectin expression at 20 uM pretreated with TGF-beta1 for 1 hr followed by compound addition and measured after 24 hrs by Western blot analysis; assay type: functional, cell-based
[6] = tested on: Mus musculus; experiment: Antifibrotic activity against CCL4-induced C57BL/6J mouse hepatic fibrosis model assessed as reduction in CD69/CD4 in Th1 cell cells at 30 mg/kg, po measured for 3 weeks by flow cytometry analysis relative to control; assay type: functional; design: scale not given: the % may be the effect or the level left
[7] = tested on: Mus musculus; experiment: Antifibrotic activity against CCL4-induced C57BL/6J mouse hepatic fibrosis model assessed as reduction in CD11b/Gr-1 in MDSC cells at 30 mg/kg, po measured for 3 weeks by flow cytometry analysis relative to control; assay type: functional; design: scale not given: the % may be the effect or the level left
[8] = Toxicity in CCL4-induced po dosed C57BL/6J mouse assessed as inflammatory cell infiltration in lung at 15 to 30 mg/kg, po by H and E staining based analysis; assay type: organism-based; settings: in vivo, dose 15-30 mg/kg
[9] = tested on: Mus musculus; experiment: Antifibrotic activity against CCL4-induced C57BL/6J mouse hepatic fibrosis model assessed as reduction in F4/80+CD11b+ in macrophage at 30 mg/kg, po measured for 3 weeks by flow cytometry analysis relative to control; assay type: functional; design: scale not given: the % may be the effect or the level left
[10] = Toxicity in CCL4-induced po dosed C57BL/6J mouse assessed as inflammatory cell infiltration in spleen at 15 to 30 mg/kg, po by H and E staining based analysis; assay type: organism-based; settings: in vivo, dose 15-30 mg/kg
[11] = Toxicity in CCL4-induced po dosed C57BL/6J mouse assessed as inflammatory cell infiltration in heart at 15 to 30 mg/kg, po by H and E staining based analysis; assay type: organism-based; settings: in vivo, dose 15-30 mg/kg
[12] = tested on: Mus musculus; experiment: Antifibrotic activity against CCL4-induced C57BL/6J mouse hepatic fibrosis model assessed as reduction in CD69/CD8 in […] cell cells at 30 mg/kg, po measured for 3 weeks by flow cytometry analysis relative to control; assay type: functional; design: scale not given: the % may be the effect or the level left
[13] = tested on: LX-2; experiment: […] of alpha-SMA mRNA expression in TGF-beta1-induced human LX2 cells at 20 uM pretreated with TGF-beta1 for 1 hr followed by compound addition and measured after 24 hrs by qRT-PCR analysis; assay type: functional, cell-based
[14] = tested on: LX-2; experiment: Downregulation of alpha-SMA mRNA expression in TGF-beta1-induced human LX2 cells at 20 uM pretreated with TGF-beta1 for 1 hr followed by compound addition and measured after 24 hrs by qRT-PCR analysis; assay type: functional, cell-based
[15] = tested on: LX-2; experiment: Effect on alpha-SMA protein level in TGF-beta1-induced human LX2 cells at 20 uM pretreated with TGF-beta1 for 1 hr followed by compound addition and measured after 24 hrs by Western blot analysis; assay type: functional, cell-based
[16] = tested on: LX-2; experiment: Downregulation of fibronectin mRNA expression in TGF-beta1-induced human LX2 cells at 20 uM pretreated with TGF-beta1 for 1 hr followed by compound addition and measured after 24 hrs by qRT-PCR analysis; assay type: functional, cell-based
[17] = tested on: LX-2; experiment: Effect on fibronectin protein level in TGF-beta1-induced human LX2 cells at 20 uM pretreated with TGF-beta1 for 1 hr followed by compound addition and measured after 24 hrs by Western blot analysis; assay type: functional, cell-based

Work on COc1ccc(/C=C/C(=O)Nc2ccc(C(=O)N3CCCCC3)cc2)cc1OC yielded a viability at 72 h, 20 µM [1] of 74% and an inhibition at 20 µM [2] of 29.5%.
Molecule COc1cc(/C=C/C(=O)Nc2ccc(C(=O)NC3CCCC3)cc2)cc(OC)c1 has a viability at 72 h, 20 µM [1] of 69.7%, an inhibition at 20 µM [2] of 36.7% and an IC50 at 72 h [3] of 17.3 µM. For the same molecule, the Activity [4] was “Active” and the Activity [5] was “Active”.
COc1ccc(/C=C/C(=O)Nc2ccc(C(=O)NC3CCNC3)nc2)cc1OC (stereo not given) gave a viability at 72 h, 20 µM [1] of 76.5% and an inhibition at 20 µM [2] of 19.5%.
Work on COc1ccc(OC)c(/C=C/C(=O)Nc2ccc(C(=O)NC3CCCC3)cc2)c1 yielded a viability at 72 h, 20 µM [1] of 63% and an inhibition at 20 µM [2] of 26.3%.
Work on COc1ccc(/C=C/C(=O)Nc2ccc(C(=O)O)cc2)cc1OC yielded a viability at 72 h, 20 µM [1] of 81.5% and an inhibition at 20 µM [2] of 31%.
COc1ccc(/C=C/C(=O)Nc2ccc(C(=O)NC3CCC3)cc2)cc1OC showed a viability at 72 h, 20 µM [1] of 68.3% and an inhibition at 20 µM [2] of 27%.
With COc1ccc(/C=C/C(=O)Nc2ccc(C(=O)NC3CCCC3)cc2)cc1 the viability at 72 h, 20 µM [1] was 50.3% and the inhibition at 20 µM [2] was 32%.
With COc1ccc(/C=C/C(=O)Nc2cccc(C(=O)NC3CCC3)c2)cc1OC the viability at 72 h, 20 µM [1] was 60% and the inhibition at 20 µM [2] was 31.7%.
COc1ccc(/C=C/C(=O)Nc2ccc(C(=O)NC3CCCCC3)cc2)cc1OC showed a viability at 72 h, 20 µM [1] of 81.3% and an inhibition at 20 µM [2] of 14%.
COc1ccc(/C=C/C(=O)Nc2ccccc2C(=O)NC2CCC2)cc1OC showed a viability at 72 h, 20 µM [1] of 71% and an inhibition at 20 µM [2] of 19%.
For CNC(=O)c1ccc(NC(=O)/C=C/c2ccc(OC)c(OC)c2)cc1, the viability at 72 h, 20 µM [1] was 79.5% and the inhibition at 20 µM [2] was 24%.
Molecule O=C(/C=C/c1ccc2c(c1)OCO2)Nc1ccc(C(=O)NC2CCCC2)cc1 has a viability at 72 h, 20 µM [1] of 78% and an inhibition at 20 µM [2] of 22%.
Work on COc1cccc(/C=C/C(=O)Nc2ccc(C(=O)NC3CCCC3)cc2)c1 yielded a viability at 72 h, 20 µM [1] of 70.8% and an inhibition at 20 µM [2] of 19%.
In the case of O=C(/C=C/c1ccc2c(c1)OCCO2)Nc1ccc(C(=O)NC2CCCC2)cc1, the viability at 72 h, 20 µM [1] is reported as 69.3% and the inhibition at 20 µM [2] is reported as 18%.
COc1ccc(/C=C/C(=O)Nc2cccc(C(=O)NC3CC3)c2)cc1OC showed a viability at 72 h, 20 µM [1] of 65.3% and an inhibition at 20 µM [2] of 30%.
In the case of COc1ccc(/C=C/C(=O)Nc2ccccc2C(=O)NC2CC2)cc1OC, the viability at 72 h, 20 µM [1] is reported as 71.5% and the inhibition at 20 µM [2] is reported as 1.5%.
COc1ccc(/C=C/C(=O)Nc2ccc(C(=O)NC3CCCC3)cc2)cc1O showed a viability at 72 h, 20 µM [1] of 66.3% and an inhibition at 20 µM [2] of 29.5%.
For COc1ccc(/C=C/C(=O)Nc2ccccc2C(=O)O)cc1OC [TRANILAST], the Activity [6] was 1.66%, the Activity [7] was 2.87% and the Activity [8] was “Non-Toxic”. The viability at 72 h, 20 µM [1] was 80%, the inhibition at 20 µM [2] was 17.5% and the Activity [9] was 5.09%. For the same molecule, the Activity [10] was “Non-Toxic”, the Activity [11] was “Non-Toxic” and the IC50 at 72 h [3] was 82.3 µM. The Activity [12] was 1.92%.
COc1ccc(/C=C/C(=O)Nc2cccc(C(=O)N3CCCCC3)c2)cc1OC gave a viability at 72 h, 20 µM [1] of 68.8% and an inhibition at 20 µM [2] of 17.7%.
In the case of COc1ccc(/C=C/C(=O)Nc2ccc(C(=O)NC3CCCC3)nc2)cc1OC, the viability at 72 h, 20 µM [1] is reported as 64.5%, the inhibition at 20 µM [2] is reported as 41% and the Activity [13] is reported as “Active”.
Molecule COc1ccc(CCC(=O)Nc2cccc(C(=O)NC3CCCC3)c2)cc1OC has a viability at 72 h, 20 µM [1] of 71.7% and an inhibition at 20 µM [2] of 13.8%.
In the case of COc1ccc(/C=C/C(=O)Nc2cccc(C(=O)NC3CCCC3)c2)cc1OC, the viability at 72 h, 20 µM [1] is reported as 44.3%, the inhibition at 20 µM [2] is reported as 53.8% and the IC50 at 72 h [3] is reported as 8.4 µM. The Activity [4] was “Active” and the Activity [5] was “Active”.
Molecule CNC(=O)c1ccccc1NC(=O)/C=C/c1ccc(OC)c(OC)c1 has a viability at 72 h, 20 µM [1] of 67% and an inhibition at 20 µM [2] of 13%.
Molecule COc1ccc(/C=C/C(=O)Nc2ccc(C(=O)O)nc2)cc1OC has a viability at 72 h, 20 µM [1] of 98% and an inhibition at 20 µM [2] of 14%.
COc1ccc(/C=C/C(=O)Nc2ccc(C(=O)NC3CCCC3)cc2)cc1OC gave a viability at 72 h, 20 µM [1] of 46%, an inhibition at 20 µM [2] of 48.3% and an IC50 at 72 h [3] of 13.3 µM. For the same molecule, the Activity [4] was “Active” and the Activity [5] was “Active”.
For COc1ccc(/C=C/C(=O)Nc2ccccc2C(=O)N2CCCCC2)cc1OC, the viability at 72 h, 20 µM [1] was 88.7% and the inhibition at 20 µM [2] was 13%.
COc1ccc(/C=C/C(=O)Nc2ccccc2C(=O)NC2CCCCC2)cc1OC gave a viability at 72 h, 20 µM [1] of 45.3% and an inhibition at 20 µM [2] of 20%.
In the case of COc1cccc(/C=C/C(=O)Nc2ccc(C(=O)NC3CCCC3)cc2)c1OC, the viability at 72 h, 20 µM [1] is reported as 77% and the inhibition at 20 µM [2] is reported as 17.3%.
Molecule Cc1cc(C)cc(/C=C/C(=O)Nc2ccc(C(=O)NC3CCCC3)cc2)c1 has a viability at 72 h, 20 µM [1] of 80.5% and an inhibition at 20 µM [2] of 3%.
Work on CNC(=O)c1cccc(NC(=O)/C=C/c2ccc(OC)c(OC)c2)c1 yielded a viability at 72 h, 20 µM [1] of 79.7% and an inhibition at 20 µM [2] of 28.5%.
COc1cccc(/C=C/C(=O)Nc2cccc(C(=O)NC3CCCC3)c2)c1 gave a viability at 72 h, 20 µM [1] of 56% and an inhibition at 20 µM [2] of 25.3%.
With COc1ccccc1/C=C/C(=O)Nc1ccc(C(=O)NC2CCCC2)cc1 the Activity [14] was “Active”, the viability at 72 h, 20 µM [1] was 70.8% and the inhibition at 20 µM [2] was 70.3%. The Activity [15] was “inactive”, the Activity [16] was “Active” and the Activity [17] was “inactive”.
For COc1ccc(/C=C/C(=O)Nc2cccc(C(=O)O)c2)cc1OC, the viability at 72 h, 20 µM [1] was 79.3% and the inhibition at 20 µM [2] was 26%.
COc1ccc(/C=C/C(=O)Nc2cccc(C(=O)NC3CCCCC3)c2)cc1OC showed a viability at 72 h, 20 µM [1] of 39.8% and an inhibition at 20 µM [2] of 49.6%.
In the case of COc1ccc(/C=C/C(=O)Nc2ccc(C(=O)NC3CCNC3)cc2)cc1OC (stereo not given), the viability at 72 h, 20 µM [1] is reported as 80.3% and the inhibition at 20 µM [2] is reported as 17%.
COc1ccccc1/C=C/C(=O)Nc1cccc(C(=O)NC2CCCC2)c1 showed a viability at 72 h, 20 µM [1] of 66% and an inhibition at 20 µM [2] of 17.3%.
COc1ccc(/C=C/C(=O)Nc2ccccc2C(=O)NC2CCCC2)cc1OC showed a viability at 72 h, 20 µM [1] of 88% and an inhibition at 20 µM [2] of 27%.
COc1ccc(CCC(=O)Nc2ccc(C(=O)NC3CCCC3)cc2)cc1OC showed a viability at 72 h, 20 µM [1] of 71.7% and an inhibition at 20 µM [2] of 3%.
Work on COc1ccc(/C=C/C(=O)Nc2ccc(C(=O)NC3CC3)cc2)cc1OC yielded a viability at 72 h, 20 µM [1] of 74.3% and an inhibition at 20 µM [2] of 24.5%.
